What was measured:
Type in all cases: in vivo
[1] = system: yellow nutsedge (Cyperus esculentus); assay: Test B pre-/postemergence plant response
Summary of the method: (§1)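 Test compounds, formulated in a non-phytotoxic solvent mixture with surfactant, are applied to the soil surface (loam and sand blend) right after seeding, or sprayed over plants at the 1- to 4-leaf stage grown in peat moss/vermiculite medium. After 13 to 15 days under glasshouse conditions, each species is scored visually from 0 (no effect) to 100 (complete control) against controls.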

[2] = system: green foxtail (Setaria viridis); assay: Test B pre-/postemergence plant response
Summary of the method: as §1

[3] = system: large crabgrass (Digitaria sanguinalis); assay: Test B pre-/postemergence plant response
Summary of the method: as §1

[4] = system: goosegrass (Eleusine indica); assay: Test B pre-/postemergence plant response
Summary of the method: as §1

[5] = system: lambsquarters (Chenopodium album); assay: Test B pre-/postemergence plant response
Summary of the method: as §1

[6] = system: bermudagrass (Cynodon dactylon); assay: Test B pre-/postemergence plant response
Summary of the method: as §1

[7] = system: wheat (Triticum aestivum); assay: Test B pre-/postemergence plant response
Summary of the method: as §1

[8] = system: morningglory (Ipomoea coccinea); assay: Test B pre-/postemergence plant response
Summary of the method: as §1

[9] = system: cocklebur (Xanthium strumarium); assay: Test B pre-/postemergence plant response
Summary of the method: as §1

wild oat (Avena fatua) = assay: Test B pre-/postemergence plant response
Summary of the method: as §1

[10] = system: barnyardgrass (Echinochloa crus-galli); assay: Test B flooded paddy test; settings: for Plant response rating, Flood, Barnyardgrass: 250 g ai/ha, flooded paddy test, visual rating on 0 to 100 scale (0 no effect, 100 complete control) after 13 to 15 days; for Plant response rating, Barnyardgrass: Flood (flooded paddy test), 13 to 15 days
Summary of the method: (§2)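 Ratings are visual, 0–100 (100 = complete control), taken versus untreated controls 13 to 15 days after treatment in the greenhouse. Compound went straight into paddy water held 3 cm above soil, applied to 2-leaf-stage plants of four species.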

[11] = system: umbrella sedge (Cyperus difformis); assay: Test B flooded paddy test; settings: for Plant response rating, Flood, Sedge, Umbrella: 250 g ai/ha, flooded paddy test, visual rating on 0 to 100 scale (0 no effect, 100 complete control) after 13 to 15 days; for Plant response rating, Sedge, Umbrella: Flood (flooded paddy test), 13 to 15 days
Summary of the method: as §2

[12] = 31 g ai/ha, postemergence, scale 0 to 100, 0 is no effect, 100 is complete control
[13] = 62 g ai/ha, postemergence, 0 is no effect, 100 is complete control, 13 to 15 days
[14] = Postemergence, 250 g ai/ha, scale 0 to 100 (0 no effect, 100 complete control)
[15] = Postemergence, 125 g ai/ha, visual rating after 13 to 15 days, scale 0 (no effect) to 100 (complete control)
[16] = 62 g ai/ha, scale of 0 to 100 where 0 is no effect and 100 is complete control
[17] = 125 g ai/ha, scale 0 to 100, 0 is no effect, 100 is complete control
[18] = Flood, 31 g ai/ha, scale 0 to 100 (0 no effect, 100 complete control)
[19] = Postemergence, 62 g ai/ha, scale 0 (no effect) to 100 (complete control), 13 to 15 days
[20] = Preemergence, 31 g ai/ha, scale 0 to 100 (0 no effect, 100 complete control)
[21] = Preemergence, 62 g ai/ha, scale 0 to 100 (0 no effect, 100 complete control)
[22] = Preemergence, 125 g ai/ha, scale 0 to 100, 0 no effect, 100 complete control
[23] = 250 g ai/ha, Preemergence, 0 to 100 scale
[24] = 31 g ai/ha, scale of 0 to 100 where 0 is no effect and 100 is complete control

## CC(C)n1c(-c2ccccc2)ncc(C(=O)C2=C(O)CCCC2=O)c1=O [Compound 95]
[1]; [12]
  Plant response rating, Nutsedge, Yellow: 75
[1]; [13]
  Nutsedge, Yellow plant response rating (0 to 100 scale): 75
[1]; [14]
  Plant response rating, Nutsedge, Yellow: 85
[2]; [12]
  Plant response rating, Foxtail, Green: 20
[2]; [13]
  Foxtail, Green plant response rating (0 to 100 scale): 50
[2]; [14]
  Plant response rating, Foxtail, Green: 90
[3]; [12]
  Plant response rating, Crabgrass, Large: 45
[3]; [13]
  Crabgrass, Large plant response rating (0 to 100 scale): 65
[3]; [15]
  Plant response rating, Crabgrass, Large: 75
[3]; [14]
  Plant response rating, Crabgrass, Large: 80
[4]; [12]
  Plant response rating, Goosegrass: 65
[4]; [13]
  Goosegrass plant response rating (0 to 100 scale): 75
[4]; [14]
  Plant response rating, Goosegrass: 90
[5]; [12]
  Plant response rating, Lambsquarters: 80
[5]; [13]
  Lambsquarters plant response rating (0 to 100 scale): 98
[5]; [14]
  Plant response rating, Lambsquarters: 100
[6]; [12]
  Plant response rating, Bermudagrass: 45
[6]; [13]
  Bermudagrass plant response rating (0 to 100 scale): 75
[6]; [15]
  Plant response rating, Bermudagrass: 75
[6]; [14]
  Plant response rating, Bermudagrass: 90
[7]; [12]
  Plant response rating, Wheat: 0
[7]; [13]
  Wheat plant response rating (0 to 100 scale): 0
[7]; [14]
  Plant response rating, Wheat: 0
[8]; [12]
  Plant response rating, Morningglory: 100
[8]; [13]
  Morningglory plant response rating (0 to 100 scale): 100
[8]; [14]
  Plant response rating, Morningglory: 100
[9]; [12]
  Plant response rating, Cocklebur: 70
[9]; [13]
  Cocklebur plant response rating (0 to 100 scale): 95
[9]; [15]
  Plant response rating, Cocklebur: 100
[9]; [14]
  Plant response rating, Cocklebur: 100
Wild oat (Avena fatua); [12]
  Plant response rating, Oat, Wild: 0
Wild oat (Avena fatua); [13]
  Oat, Wild plant response rating (0 to 100 scale): 0
Wild oat (Avena fatua); [14]
  Plant response rating, Oat, Wild: 0
[10]
  Plant response rating, Flood, Barnyardgrass: 70
[10]; [16]
  Plant response rating, Barnyardgrass: 35
[10]; [17]
  Plant response rating, Barnyardgrass: 65
[10]; [18]
  Barnyardgrass plant response rating: 20
[11]
  Plant response rating, Flood, Sedge, Umbrella: 75
[11]; [16]
  Plant response rating, Sedge, Umbrella: 20
[11]; [17]
  Plant response rating, Sedge, Umbrella: 50
[11]; [18]
  Sedge, Umbrella plant response rating: 0

## O=C1CCCC(O)=C1C(=O)c1cnc(-c2ccsc2)n(-c2ccccc2)c1=O [Compound 56]
[1]; [12]
  Plant response rating, Nutsedge, Yellow: 20
[1]; [19]
  Plant response rating, Nutsedge, Yellow: 70
[1]; [15]
  Plant response rating, Nutsedge, Yellow: 75
[1]; [14]
  Plant response rating, Nutsedge, Yellow: 75
[1]; [20]
  Plant response rating, Nutsedge, Yellow: 20
[1]; [21]
  Plant response rating, Nutsedge, Yellow: 80
[1]; [22]
  Plant response rating, Nutsedge, Yellow: 85
[2]; [12]
  Plant response rating, Foxtail, Green: 80
[2]; [23]
  Plant response rating, Foxtail, Green: 100
[2]; [19]
  Plant response rating, Foxtail, Green: 85
[2]; [15]
  Plant response rating, Foxtail, Green: 98
[2]; [14]
  Plant response rating, Foxtail, Green: 100
[2]; [20]
  Plant response rating, Foxtail, Green: 0
[2]; [21]
  Plant response rating, Foxtail, Green: 20
[2]; [22]
  Plant response rating, Foxtail, Green: 20
[3]; [12]
  Plant response rating, Crabgrass, Large: 75
[3]; [23]
  Plant response rating, Crabgrass, Large: 98
[3]; [19]
  Plant response rating, Crabgrass, Large: 85
[3]; [15]
  Plant response rating, Crabgrass, Large: 90
[3]; [14]
  Plant response rating, Crabgrass, Large: 95
[3]; [20]
  Plant response rating, Crabgrass, Large: 80
[3]; [21]
  Plant response rating, Crabgrass, Large: 85
[3]; [22]
  Plant response rating, Crabgrass, Large: 98
[4]; [12]
  Plant response rating, Goosegrass: 65
[4]; [23]
  Plant response rating, Goosegrass: 100
[4]; [19]
  Plant response rating, Goosegrass: 75
[4]; [15]
  Plant response rating, Goosegrass: 75
[4]; [14]
  Plant response rating, Goosegrass: 90
[4]; [20]
  Plant response rating, Goosegrass: 90
[4]; [21]
  Plant response rating, Goosegrass: 95
[4]; [22]
  Plant response rating, Goosegrass: 95
[5]; [12]
  Plant response rating, Lambsquarters: 98
[5]; [23]
  Plant response rating, Lambsquarters: 98
[5]; [19]
  Plant response rating, Lambsquarters: 98
[5]; [15]
  Plant response rating, Lambsquarters: 100
[5]; [14]
  Plant response rating, Lambsquarters: 100
[5]; [20]
  Plant response rating, Lambsquarters: 95
[5]; [21]
  Plant response rating, Lambsquarters: 98
[5]; [22]
  Plant response rating, Lambsquarters: 98
[6]; [12]
  Plant response rating, Bermudagrass: 75
[6]; [23]
  Plant response rating, Bermudagrass: 100
[6]; [19]
  Plant response rating, Bermudagrass: 85
[6]; [15]
  Plant response rating, Bermudagrass: 100
[6]; [14]
  Plant response rating, Bermudagrass: 100
[6]; [20]
  Plant response rating, Bermudagrass: 98
[6]; [21]
  Plant response rating, Bermudagrass: 100
[6]; [22]
  Plant response rating, Bermudagrass: 100
[7]; [12]
  Plant response rating, Wheat: 0
[7]; [19]
  Plant response rating, Wheat: 0
[7]; [15]
  Plant response rating, Wheat: 0
[7]; [14]
  Plant response rating, Wheat: 0
[7]; [20]
  Plant response rating, Wheat: 0
[7]; [21]
  Plant response rating, Wheat: 0
[7]; [22]
  Plant response rating, Wheat: 0
[8]; [15]
  Plant response rating, Morningglory: 100
[8]; [14]
  Plant response rating, Morningglory: 100
[8]; [20]
  Plant response rating, Morningglory: 0
[8]; [21]
  Plant response rating, Morningglory: 0
[8]; [22]
  Plant response rating, Morningglory: 45
[9]; [12]
  Plant response rating, Cocklebur: 5
[9]; [23]
  Plant response rating, Cocklebur: 0
[9]; [19]
  Plant response rating, Cocklebur: 55
[9]; [15]
  Plant response rating, Cocklebur: 75
[9]; [14]
  Plant response rating, Cocklebur: 95
[9]; [20]
  Plant response rating, Cocklebur: 0
[9]; [21]
  Plant response rating, Cocklebur: 0
[9]; [22]
  Plant response rating, Cocklebur: 0
Wild oat (Avena fatua); [12]
  Plant response rating, Oat, Wild: 5
Wild oat (Avena fatua); [19]
  Plant response rating, Oat, Wild: 20
Wild oat (Avena fatua); [15]
  Plant response rating, Oat, Wild: 40
Wild oat (Avena fatua); [14]
  Plant response rating, Oat, Wild: 45
Wild oat (Avena fatua); [20]
  Plant response rating, Oat, Wild: 0
Wild oat (Avena fatua); [21]
  Plant response rating, Oat, Wild: 0
Wild oat (Avena fatua); [22]
  Plant response rating, Oat, Wild: 0
[10]
  Plant response rating, Flood, Barnyardgrass: 35
[10]; [24]
  Plant response rating, Barnyardgrass: 10
[10]; [16]
  Plant response rating, Barnyardgrass: 15
[10]; [17]
  Plant response rating, Barnyardgrass: 20
[11]
  Plant response rating, Flood, Sedge, Umbrella: 75
[11]; [24]
  Plant response rating, Sedge, Umbrella: 30
[11]; [16]
  Plant response rating, Sedge, Umbrella: 40
[11]; [17]
  Plant response rating, Sedge, Umbrella: 60

Reference: US8952024B2, “Herbicidal pyrimidone derivatives” (E I du Pont de Nemours and Company, priority 2009, dated 2015)
